Biological target: T1, human A2A adenosine receptor (Homo sapiens, UniProt P29274)
T1 construct: expressed in transfected cells; host or cells: HEK293 or CHO cells
Assay: A2A binding affinity, Method (B): scintillation proximity assay (SPA) with [3H]SCH58261
Details: membranes of HEK293 or CHO cells expressing the human receptor
Text: Method (A) describes the procedure used to measure A2A binding affinity using radioligand binding. Method (B) describes the procedure used to measure A2A binding affinity using SPA technology. The method used to measure A2B binding affinity is also described below. The method used to determine the A2A IC50 value reported for each compound in the table is indicated next to the reported value. The A2B IC50 value measured using the A2B binding affinity assay is shown in the table next to the compound under the corresponding A2A value.
The A2A receptor affinity binding assay measured the amount of binding of a tritiated ligand with high affinity for the A2A adenosine receptor to membranes made from HEK293 or CHO cells recombinantly expressing the human A2A adenosine receptor, in the presence of varying concentrations of a compound of the invention. The data were generated using either filtration binding or a homogenous scintillation proximity assay (SPA).
Method (B): Measurement of A2A Binding Affinity Using SPA
Binding affinity using SPA was conducted as follows. Test compounds (50 nL) were dispensed into individual wells of a 384-well OptiPlate™ well (Perkin Elmer) by Echo® acoustic liquid transfer (Labcyte). 20 µL of 1.25 nM [^3H] SCH58261 ((7-(2-phenylethyl)-5-amino-2-(2-furyl)-pyrazolo-[4,3-e]-1,2,4-triazolo[1,5-c]pyrimidine)) in DPBS assay buffer (Dulbecco’s phosphate buffered saline without calcium and magnesium, ThermoFisher Scientific, Cat. No. A1285601) supplemented with 10 mM MgCl2 was added. A2A receptor-expressing membranes were incubated with 20 µg/mL adenosine deaminase (Roche, Cat. No. 10 102 105 001) for 15 min at room temperature. The receptor-expressing membranes were then combined with wheat germ agglutinin-coated yttrium silicate SPA beads (GE Healthcare, Cat. No. RPNQ0023) in a ratio of […] (w/w) and incubated for 30 min at room temperature. 30 µL of the membrane/bead mixture (0.25 µg and 25 µg per well respectively) were added to the 384-well OptiPlate™ well. To define total and non-specific binding, wells containing 1% DMSO or 1 µM CGS 15943 (Tocris Bioscience, Cat. No. 1699) respectively were also included in the experiment. The plate was incubated for 1 h at room temperature with agitation. The assay plate was then incubated for an h to allow the beads to settle before data were collected using a TopCount® (Perkin Elmer) scintillation counter. After normalization to total and non-specific binding, the percent effect at each compound concentration was calculated. The plot of percent effect versus the log of compound concentration was analyzed electronically using a 4-parameter logistic fit based on the Levenberg-Marquardt algorithm to generate IC50 values.

T1 sequence (P29274 whole entry): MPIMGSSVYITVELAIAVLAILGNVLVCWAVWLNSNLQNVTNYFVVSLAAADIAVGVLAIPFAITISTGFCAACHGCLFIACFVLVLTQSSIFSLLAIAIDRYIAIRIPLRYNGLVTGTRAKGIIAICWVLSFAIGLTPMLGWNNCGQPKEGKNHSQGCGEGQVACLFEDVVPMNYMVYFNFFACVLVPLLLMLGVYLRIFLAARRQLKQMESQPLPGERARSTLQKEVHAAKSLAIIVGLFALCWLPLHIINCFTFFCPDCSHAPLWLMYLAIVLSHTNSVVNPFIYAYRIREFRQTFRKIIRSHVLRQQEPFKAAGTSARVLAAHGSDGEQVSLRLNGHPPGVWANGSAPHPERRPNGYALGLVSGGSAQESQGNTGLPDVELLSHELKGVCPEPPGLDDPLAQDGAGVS

SMILES	IC50 [nM]
C=CCN(Cc1ccc(OC(F)(F)F)cc1)Cc1nc2c3cccc(OC)c3nc(N)n2n1 [Entry 21.2]	3.1
COc1cccc2c1nc(N)n1nc(CCNCC(C)(F)F)nc21 [Example 23.3, 2-(2-((2,2-difluoropropyl)amino)ethyl)-7-methoxy-[1,2,4]triazolo[1,5-c]quinazolin-5-amine]	12.2
COc1cccc2c1nc(N)n1nc(CC(=O)NCc3ccc(OC(F)(F)F)cc3)nc21 [Example 4.5, 2-(5-amino-7-methoxy-[1,2,4]triazolo[1,5-c]quinazolin-2-yl)-N-(4-(trifluoromethoxy)benzyl)acetamide]	5.8
COc1cccc2c1nc(N)n1nc(CN(C)c3cccnc3Br)nc21 [Example 10.3, 2-(((2-bromopyridin-3-yl)(methyl)amino)methyl)-7-methoxy-[1,2,4]triazolo[1,5-c]quinazolin-5-amine]	41.6
COc1cccc2c1nc(N)n1nc(CCCNCc3ccc(C(F)(F)F)cc3)nc21 [Example 10.6, 7-methoxy-2-(3-((4-(trifluoromethyl)benzyl)amino)propyl)-[1,2,4]triazolo[1,5-c]quinazolin-5-amine]	8.7
COc1cccc2c1nc(N)n1nc(CN(Cc3ccc(OC(F)(F)F)cc3)C(=O)NC(C)C)nc21 [Example 20.3, 1-((5-amino-7-methoxy-[1,2,4]triazolo[1,5-c]quinazolin-2-yl)methyl)-3-isopropyl-1-(4-(trifluoromethoxy)benzyl)urea]	22.6
COc1cccc2c1nc(N)n1nc(CN(Cc3ccnc4[nH]ccc34)CC3CC3)nc21 [Example 16.10, 2-((((1H-pyrrolo[2,3-b]pyridin-4-yl)methyl)(cyclopropylmethyl)amino)methyl)-7-methoxy-[1,2,4]triazolo[1,5-c]quinazolin-5-amine]	2.3
COc1cccc2c1nc(N)n1nc(CNCc3ccc(Br)cc3)nc21 [Example 7.9, 2-(((4-bromobenzyl)amino)methyl)-7-methoxy-[1,2,4]triazolo[1,5-c]quinazolin-5-amine]	5.4
COc1cccc2c1nc(N)n1nc(CN(Cc3ccc(NC(=O)C(C)(C)C)nc3)CC3CC3)nc21 [Example 16.9]	5.2
COc1cccc2c1nc(N)n1nc(CNCC3CCN(c4ncc(F)cn4)CC3)nc21 [Example 14.3, 2-((((1-(5-fluoropyrimidin-2-yl)piperidin-4-yl)methyl)amino)methyl)-7-methoxy-[1,2,4]triazolo[1,5-c]quinazolin-5-amine]	10
COc1cccc2c1nc(N)n1nc(CNCc3ccc(OC(F)(F)F)cc3)nc21 [Example 8.6, 7-methoxy-2-(((4-(trifluoromethoxy)benzyl)amino)methyl)-[1,2,4]triazolo[1,5-c]quinazolin-5-amine]	8.9
COc1cccc2c1nc(N)n1nc(CN(CC(C)F)CC(C)F)nc21 (stereo not shown) [Example 13.1, 2-((bis(2-fluoropropyl)amino)methyl)-7-methoxy-[1,2,4]triazolo[1,5-c]quinazolin-5-amine]	3.3
COc1cccc2c1nc(N)n1nc(CN(CCc3ccc(C(F)(F)F)cc3)CC3CCC3)nc21 [Example 15.12, 2-(((cyclobutylmethyl)(4-(trifluoromethyl)phenethyl)amino)methyl)-7-methoxy-[1,2,4]triazolo[1,5-c]quinazolin-5-amine]	23.6
COc1cccc2c1nc(N)n1nc(CN(Cc3ccc(C(F)(F)F)cc3)CC3CC3)nc21 [Example 15.2, 2-(((cyclopropylmethyl)(4-(trifluoromethyl)benzyl)amino)methyl)-7-methoxy-[1,2,4]triazolo[1,5-c]quinazolin-5-amine]	3
COc1cccc2c1nc(N)n1nc(CN(C)Cc3ccc(C(F)(F)F)cc3)nc21 [Example 8.3, 7-methoxy-2-((methyl(4-(trifluoromethyl)benzyl)amino)methyl)-[1,2,4]triazolo[1,5-c]quinazolin-5-amine]	6.4
COc1cccc2c1nc(N)n1nc(CN(Cc3ccc(-c4ccccn4)cc3)CC3CC3)nc21 [Example 16.13, 2-(((cyclopropylmethyl)(4-(pyridin-2-yl)benzyl)amino)methyl)-7-methoxy-[1,2,4]triazolo[1,5-c]quinazolin-5-amine]	2.6
COc1cccc2c1nc(N)n1nc(CN(CC(F)F)CC3CC3)nc21 [Example 17.1, 2-(((cyclopropylmethyl)(2,2-difluoroethyl)amino)methyl)-7-methoxy-[1,2,4]triazolo[1,5-c]quinazolin-5-amine]	2.5
COc1cccc2c1nc(N)n1nc(CN(C)c3cccc(Br)n3)nc21 [Example 10.11, 2-(((6-bromopyridin-2-yl)(methyl)amino)methyl)-7-methoxy-[1,2,4]triazolo [1,5-c]quinazolin-5-amine]	2.2
COc1cccc2c1nc(N)n1nc(CC(=O)N[C@@H]3CCOc4cc(F)ccc43)nc21 [Example 4.6, (R)-2-(5-amino-7-methoxy-[1,2,4]triazolo[1,5-c]quinazolin-2-yl)-N-(7-fluorochroman-4-yl)acetamide]	2
COc1cccc2c1nc(N)n1nc(CCNCC(F)(F)C(F)(F)F)nc21 [Example 22.8, 7-methoxy-2-(2-((2,2,3,3,3-pentafluoropropyl)amino)ethyl)-[1,2,4]triazolo[1,5-c] quinazolin-5-amine]	10.9
COc1cccc2c1nc(N)n1nc(CN(C)CCc3ccc(C(F)(F)F)cc3)nc21 [Example 15.13, 7-methoxy-2-((methyl(4-(trifluoromethyl)phenethyl)amino)methyl)-[1,2,4]triazolo[1,5-c]quinazolin-5-amine]	7.9
CCN(Cc1ccc(OC(F)(F)F)cc1)Cc1nc2c3cccc(OC)c3nc(N)n2n1 [Example 15.8, 2-((ethyl(4-(trifluoromethoxy)benzyl)amino)methyl)-7-methoxy-[1,2,4]triazolo[1,5-c]quinazolin-5-amine]	3.2
COc1cccc2c1nc(N)n1nc(CN(Cc3ccc(OC(C)C)nc3)CC3CC3)nc21 [Example 16.7, 2-(((cyclopropylmethyl)((6-isopropoxypyridin-3-yl)methyl)amino)methyl)-7-methoxy-[1,2,4]triazolo[1,5-c]quinazolin-5-amine]	13.5
COc1cccc2c1nc(N)n1nc(CCCNCc3ccc(S(F)(F)(F)(F)F)cc3)nc21 [Example 10.7, 7-methoxy-2-(3-((4-(pentafluoro-λ^6-sulfaneyl)benzyl)amino)propyl)-[1,2,4]triazolo[1,5-c]quinazolin-5-amine]	45.2
COc1ccc(CN(Cc2nc3c4cccc(OC)c4nc(N)n3n2)CC2CC2)cn1 [Example 16.5, 2-(((cyclopropylmethyl)((6-methoxypyridin-3-yl)methyl)amino)methyl)-7-methoxy-[1,2,4]triazolo[1,5-c]quinazolin-5-amine]	9.2
COc1cccc2c1nc(N)n1nc(CNCc3ccc(C(F)(F)F)cc3)nc21 [Example 7.1, 7-methoxy-2-(((4-(trifluoromethyl)benzyl)amino)methyl)-[1,2,4]triazolo[1,5-c]quinazolin-5-amine]	8.9
COc1cccc2c1nc(N)n1nc(CCN[C@@H](C)c3ccc(C(F)(F)F)cc3)nc21 [Example 22.7, (S)-7-methoxy-2-(2-((1-(4-(trifluoromethyl)phenyl)ethyl)amino)ethyl)-[1,2,4]triazolo[1,5-c]quinazolin-5-amine]	27.3
CCOC(=O)CN(Cc1nc2c3cccc(OC)c3nc(N)n2n1)CC1CC1 [Entry 17.2]	13
